Source: US20150274719A1, “AMINO-SUBSTITUTED IMIDAZO[1,2-A]PYRIDINECARBOXAMIDES AND THEIR USE” (BAYER PHARMA AKTIENGESELLSCHAFT, priority 2012, published 2015)
Structures can show the parent of a compound that is named as a salt.

Biological target: T1, recombinant guanylate cyclase reporter cell line (Rattus norvegicus, UniProt P19686+P20595)
T1 construct: expressed in transfected cells; host or cells: recombinant reporter cell line
T1 sequence (P19686 1-690): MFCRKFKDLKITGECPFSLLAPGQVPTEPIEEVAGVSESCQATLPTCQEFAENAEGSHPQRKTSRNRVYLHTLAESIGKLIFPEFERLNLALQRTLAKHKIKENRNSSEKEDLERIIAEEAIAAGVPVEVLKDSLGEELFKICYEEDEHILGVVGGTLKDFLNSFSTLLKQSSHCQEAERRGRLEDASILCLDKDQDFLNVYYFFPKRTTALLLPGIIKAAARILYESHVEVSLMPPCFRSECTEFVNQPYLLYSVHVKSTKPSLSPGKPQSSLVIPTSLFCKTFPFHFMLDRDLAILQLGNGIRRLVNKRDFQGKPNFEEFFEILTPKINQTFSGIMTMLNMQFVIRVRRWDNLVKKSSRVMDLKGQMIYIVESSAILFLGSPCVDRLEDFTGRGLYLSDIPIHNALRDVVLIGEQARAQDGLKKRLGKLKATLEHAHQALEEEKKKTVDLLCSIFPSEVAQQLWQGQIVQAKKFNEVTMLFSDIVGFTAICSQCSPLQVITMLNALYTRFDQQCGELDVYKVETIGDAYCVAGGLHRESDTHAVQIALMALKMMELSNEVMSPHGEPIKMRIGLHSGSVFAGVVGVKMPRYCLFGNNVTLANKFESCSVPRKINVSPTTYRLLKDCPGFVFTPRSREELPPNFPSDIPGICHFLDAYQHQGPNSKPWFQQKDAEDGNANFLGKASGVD
T1 sequence (P20595 1-619): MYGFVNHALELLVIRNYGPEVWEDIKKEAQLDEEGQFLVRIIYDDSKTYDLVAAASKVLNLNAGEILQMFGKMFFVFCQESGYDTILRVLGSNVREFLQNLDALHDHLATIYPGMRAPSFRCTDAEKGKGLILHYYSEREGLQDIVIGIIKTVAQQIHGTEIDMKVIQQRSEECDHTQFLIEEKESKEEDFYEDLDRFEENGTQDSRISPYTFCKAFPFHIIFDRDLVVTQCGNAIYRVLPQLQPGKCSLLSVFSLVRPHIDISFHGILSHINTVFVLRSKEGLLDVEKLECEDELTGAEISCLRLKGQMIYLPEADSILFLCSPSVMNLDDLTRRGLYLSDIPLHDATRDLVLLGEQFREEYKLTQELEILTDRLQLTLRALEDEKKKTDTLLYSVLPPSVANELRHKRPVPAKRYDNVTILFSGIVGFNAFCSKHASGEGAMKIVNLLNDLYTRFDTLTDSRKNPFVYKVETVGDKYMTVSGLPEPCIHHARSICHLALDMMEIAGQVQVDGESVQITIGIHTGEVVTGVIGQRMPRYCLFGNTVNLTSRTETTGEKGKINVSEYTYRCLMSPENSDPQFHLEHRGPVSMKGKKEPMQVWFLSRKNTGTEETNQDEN
Assay: Action on recombinant guanylate cyclase reporter cell line
Assay type: cell-based
Settings: in some cases mean values from individual determinations
Method in brief: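 Rat recombinant guanylate cyclase reporter cell line measures cellular activity. Value reported as MEC (minimal effective concentration), sometimes averaged over individual determinations.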

MEC (minimal effective concentration) [µM]	SMILES
0.30	COC(=O)[C@@H](N)CNC(=O)c1c(C)nc2c(OCc3c(F)cccc3F)cc(C)cn12 [Example 319, Methyl 3-[({8-[(2,6-difluorobenzyl)oxy]-2,6-dimethylimidazo[1,2-a]pyridin-3-yl}carbonyl)amino]-L-alaninate]
0.30	CCCC(C)(N)CNC(=O)c1c(C)nc2c(OCc3c(F)cccc3F)cc(CC)cn12 (stereo not drawn) [Example 323, ent-N-(2-amino-2-methylpentyl)-8-[(2,6-difluorobenzyl)oxy]-6-ethyl-2-methylimidazo[1,2-a]pyridine-3-carboxamide]
1.00	Cc1cc(OCc2c(F)cccc2F)c2nc(C)c(C(=O)N[C@@H]3CC[C@](C)(N)C3(C)C)n2c1 [Example 324, N-[(1R,3S)-3-amino-2,2,3-trimethylcyclopentyl]-8-[(2,6-difluorobenzyl)oxy]-2,6-dimethylimidazo[1,2-a]pyridine-3-carboxamide]
1.00	CCCc1nc2c(OCc3c(F)cccc3F)cc(C)cn2c1C(=O)NCC(C)(N)CC (stereo not drawn) [Example 327, ent-N-(2-amino-2-methylbutyl)-8-[(2,6-difluorobenzyl)oxy]-6-methyl-2-propylimidazo[1,2-a]pyridine-3-carboxamide]
0.10	CCCC(C)(N)CNC(=O)c1c(CC)nc2c(OCc3c(F)cccc3F)cc(C)cn12 (stereo not drawn) [Example 338, ent-N-(2-amino-2-methylpentyl)-8-[(2,6-difluorobenzyl)oxy]-2-ethyl-6-methylimidazo[1,2-a]pyridine-3-carboxamide]
1.00	Cc1cc(OCc2c(F)cccc2F)c2nc(C)c(C(=O)NCC(C)(C)NCCO)n2c1 [Example 349, 8-[(2,6-Difluorobenzyl)oxy]-N-{2-[(2-hydroxyethyl)amino]-2-methylpropyl}-2,6-dimethylimidazo[1,2-a]pyridine-3-carboxamide]
3.00	CCCC(C)(N)CNC(=O)c1cnc2c(OCc3c(F)cccc3F)cccn12 (stereo not drawn) [Example 354, ent-N-(2-amino-2-methylpentyl)-8-[(2,6-difluorobenzyl)oxy]imidazo[1,2-a]pyridine-3-carboxamide]
1.00	COc1ccc(F)c(COc2cc(C)cn3c(C(=O)NCC(C)(N)CF)c(C)nc23)c1F (stereo not drawn) [Example 361, ent-N-(2-amino-3-fluoro-2-methylpropyl)-8-[(2,6-difluoro-3-methoxybenzyl)oxy]-2,6-dimethylimidazo[1,2-a]pyridine-3-carboxamide]
0.30	CCCC(C)(N)CNC(=O)c1c(C)nc2c(OCc3c(F)ccc(OC)c3F)cc(C)cn12 (stereo not drawn) [Example 364, ent-N-(2-amino-2-methylpentyl)-8-[(2,6-difluoro-3-methoxybenzyl)oxy]-2,6-dimethylimidazo[1,2-a]pyridine-3-carboxamide]
1.00	Cc1cc(OCc2c(F)cccc2F)c2nc(C)c(C(=O)NC34CC5CC(CC(N)(C5)C3)C4)n2c1 [Example 365, N-(3-aminoadamantan-1-yl)-8-[(2,6-difluorobenzyl)oxy]-2,6-dimethylimidazo[1,2-a]pyridine-3-carboxamide Formate]
1.00	CCOC(=O)c1cccc(C(CN)NC(=O)c2c(C)nc3c(OCc4c(F)cccc4F)cc(C)cn23)n1 (centres unmarked) [Example 397]
0.30	Cc1cc(OCc2c(F)cccc2F)c2nc(C)c(C(=O)NC(CN)c3ccc(C#N)cc3)n2c1 (centres unmarked) [Example 398]
0.10	CCCC(C)(N)CNC(=O)c1c(C)nc2c(OCc3c(F)cccc3F)cc(CF)cn12 (stereo not drawn) [Example 403, ent-N-(2-amino-2-methylpentyl)-8-[(2,6-difluorobenzyl)oxy]-6-(fluoromethyl)-2-methylimidazo[1,2-a]pyridine-3-carboxamide]
0.30	Cc1nc2c(OCc3c(F)cccc3F)cc(CF)cn2c1C(=O)NCC(C)(N)CF (centres unmarked) [Example 405]

Further lines, the compound ahead of its results:

SMILES	MEC (minimal effective concentration) [µM]
CCCC(C)(N)CNC(=O)c1c(C2CC2)nc2c(OCc3c(F)cccc3F)cc(C)cn12 (stereo not drawn) [Example 322, ent-N-(2-amino-2-methylpentyl)-2-cyclopropyl-8-[(2,6-difluorobenzyl)oxy]-6-methylimidazo[1,2-a]pyridine-3-carboxamide]	0.30
COc1cccc(F)c1COc1cc(C)cn2c(C(=O)NCC(C)(C)N)c(C)nc12 [Example 352, N-(2-amino-2-methylpropyl)-8-[(2-fluoro-6-methoxybenzyl)oxy]-2,6-dimethylimidazo[1,2-a]pyridine-3-carboxamide]	3.00
CCCC(C)(N)CNC(=O)c1c(C)nc2c(OCc3ccccc3Br)cc(C)cn12 (centres unmarked) [Example 353, N-(2-amino-2-methylpentyl)-8-[(2-bromobenzyl)oxy]-2,6-dimethylimidazo[1,2-a]pyridine-3-carboxamide]	3.00
C#Cc1cc(OCc2c(F)cccc2F)c2nc(C)c(C(=O)NCC(C)(N)CCC)n2c1 (stereo not drawn) [Example 355, ent-N-(2-amino-2-methylpentyl)-8-[(2,6-difluorobenzyl)oxy]-6-ethynyl-2-methylimidazo[1,2-a]pyridine-3-carboxamide Formate]	0.30
CCCC(C)(N)CNC(=O)c1c(C)nc2c(OCc3c(F)ccc(C4CC4)c3F)cc(C)cn12 (stereo not drawn) [Example 359, ent-N-(2-amino-2-methylpentyl)-8-[(3-cyclopropyl-2,6-difluorobenzyl)oxy]-2,6-dimethylimidazo[1,2-a]pyridine-3-carboxamide]	3.00
CCC(C)(N)CNC(=O)c1c(C)nc2c(OCc3c(F)ccc(OC)c3F)cc(C)cn12 (stereo not drawn) [Example 360, ent-N-(2-amino-2-methylbutyl)-8-[(2,6-difluoro-3-methoxybenzyl)oxy]-2,6-dimethylimidazo[1,2-a]pyridine-3-carboxamide]	1.00
Cc1cc(OCc2c(F)ccc(C3CC3)c2F)c2nc(C)c(C(=O)NCC(C)(N)CF)n2c1 (centres unmarked) [Example 362, N-(2-amino-3-fluoro-2-methylpropyl)-8-[(3-cyclopropyl-2,6-difluorobenzyl)oxy]-2,6-dimethylimidazo[1,2-a]pyridine-3-carboxamide]	1.00
CCC(C)(N)CNC(=O)c1c(C)nc2c(OCc3c(F)ccc(C4CC4)c3F)cc(C)cn12 (stereo not drawn) [Example 363, ent-N-(2-amino-2-methylbutyl)-8-[(3-cyclopropyl-2,6-difluorobenzyl)oxy]-2,6-dimethylimidazo[1,2-a]pyridine-3-carboxamide]	3.00
CCC(C)(N)CNC(=O)c1c(C)nc2c(OCc3c(F)cccc3F)cc(CF)cn12 (centres unmarked) [Example 404]	0.30
